Data taken from US20250066290A1, “DHODH INHIBITORS CONTAINING A CARBOXYLIC ACID BIOISOSTERE” (IMMUNIC AG, priority 2021, published 2025).
Converted amounts (≈) assume the structure as drawn.

Columns and labels:
[1] = tested on: human rhinovirus HRV-14; assay: Antiviral activity on human rhinovirus; format: cell-based; conditions: Rhinovirus B, HRV14; HRV-14; read-out: EC50
[2] = in vitro
[3] = pH 7.4
[4] = molecular target: human URAT1 uptake transporter (Homo sapiens (Human), UniProt Q96S37); assay: Human URAT1 uptake transporter assay (MDCKII-URAT1-LV, SOLVO); format: cell-based; conditions: 10 μM compound, 20 μM uric acid probe substrate
human URAT1 uptake transporter, sequence (Q96S37 whole entry): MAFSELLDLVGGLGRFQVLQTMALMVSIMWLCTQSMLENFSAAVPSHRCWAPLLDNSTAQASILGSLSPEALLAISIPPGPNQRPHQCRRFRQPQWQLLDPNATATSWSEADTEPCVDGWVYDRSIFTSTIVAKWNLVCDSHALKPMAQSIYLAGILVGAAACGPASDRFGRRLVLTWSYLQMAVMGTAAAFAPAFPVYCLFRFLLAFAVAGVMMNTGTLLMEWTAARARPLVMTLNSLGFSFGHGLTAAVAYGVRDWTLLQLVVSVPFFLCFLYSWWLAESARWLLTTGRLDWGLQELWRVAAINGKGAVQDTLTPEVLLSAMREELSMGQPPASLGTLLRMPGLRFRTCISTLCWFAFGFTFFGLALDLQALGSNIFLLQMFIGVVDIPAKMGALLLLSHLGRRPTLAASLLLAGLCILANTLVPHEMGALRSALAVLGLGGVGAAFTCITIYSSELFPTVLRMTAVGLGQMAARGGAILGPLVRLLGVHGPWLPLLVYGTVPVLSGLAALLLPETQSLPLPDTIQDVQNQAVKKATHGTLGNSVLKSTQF
Procedure: In the human URAT1 uptake transporter assay (host cell line: MDCKII), the accumulation of the probe substrate in the presence of a DHODH inhibitor (at a concentration of 10 μM) into cells was measured. The assay was executed at SOLVO with catalogue number MDCKII-URAT1-LV. 20 μM uric acid served as probe substrate. Reference inhibitor was benzbromarone at a concentration of 300 μM, which served as internal control.

[5] = tested on: Caco-2 monolayer; assay: A-B and B-A permeability (Caco-2, pH 7.4/7.4); format: in vitro ADME, human; conditions: Caco-2, pH 7.4
Text: The Caco-2 cell line is a human colon adeno-carcinoma cell line that differentiates in culture and resembles the epithelial lining of the human small intestine. […]

[6] = Partition coefficient log D (n-octanol/PBS at pH 7.4); format: physicochemical; conditions: pH 7.4
Procedure: The total amount of compound was determined as the peak area of the principal peak in a calibration standard (100 μM) containing organic solvent (MeOH/water, 60/40 v/v). The amount of compound in buffer was determined as the combined, volume-corrected and weighted areas of the corresponding peaks in the aqueous phases of three organic-aqueous samples of different composition. An automated weighting system was used to ensure the preferred use of raw data from those samples with well quantifiable peak signals. The amount of compound in organic was calculated by subtraction.
Subsequently, the partition coefficient (log D, n-octanol/PBS at pH 7.4) was calculated as the Log10 of the amount of compound in the organic phase divided by the amount of compound in the aqueous phase (Eurofins Discovery Services Item #417).

[7] = in vitro; format: cell-based; conditions: human
Text: (§1) The following results were obtained:

[8] = Cytotoxicity in human rhinovirus test
[9] = tested on: RSV-Long; assay: Antiviral activity on RSV-Long in Hep-2 cells; format: cell-based; conditions: human respiratory syncytial virus, 48 h, two days after infection
Text: as §1

[10] = tested on: SARS-CoV-2; assay: SARS-CoV-2 viral replication (YFP) assay; format: cell-based; conditions: Severe acute respiratory syndrome coronavirus 2, read-out: EC50 range
[11] = Mouse pharmacokinetics, female, deuteration matched pair analysis; format: in vivo, mice (C57BL/6J)
Procedure: In another matched pair analysis the benefit of deuteration of the N-methoxyacetamide moiety was tested: the pharmacokinetic properties of the compounds were evaluated in 3 female mice (C57BL/6J, 8 week old) after oral or intravenous cassette dosing to assess the oral bioavailability. Dose was 5 mg/kg (oral) and 1 mg/kg (intravenous), application volume was 5 mL/kg (oral) and 2 mL/kg (intravenous), vehicle was 5% solutol, 95% NaCl solution (at 0.9% saline concentration) for oral and 5% solutol, 5% ethanol, 90% NaCl solution (at 0.9% saline concentration) for intravenous application. At each designated time point (0.25, 0.5, 1, 2, 4 and 8 h after dosing for oral; 0.083, 0.25, 0.5, 1, 4 and 8 h after dosing for intravenous), 20 μL whole blood were collected from the tail vein into Li-heparin tubes, frozen on dry ice within 1-2 minutes of sampling and stored at −20° C. until processed for LC-MS analysis.

[12] = tested on: RSV-B; assay: Antiviral activity on RSV-B in Hep-2 cells; format: cell-based; conditions: human respiratory syncytial virus, 48 h, two days after infection
Text: as §1

[13] = Metabolic stability in human liver microsomes
Text: (§2) The metabolism was monitored by HPLC-MS/MS. Verapamil served as positive control.

[14] = Metabolic stability in rat liver microsomes; conditions: SD
Text: as §2

[15] = tested on: RSV-A2; assay: Antiviral activity on RSV-A2 in Hep-2 cells; conditions: human respiratory syncytial virus, HEp-2, 48 h, read-out: RSV-A2 IC50
[16] = tested on: SARS-CoV-2 reporter virus d6-YFP (WT); assay: microbe, parasite or virus in culture; format: cell-based; conditions: Severe acute respiratory syndrome coronavirus 2, Caco-2
[17] = molecular target: N-terminally truncated recombinant hDHODH enzyme (Homo sapiens, UniProt Q02127); assay: biochemical; format: biochemical; conditions: human DHODH assay; read-out: IC50 range
N-terminally truncated recombinant hDHODH enzyme, sequence (Q02127 whole entry, looked up, the tested form may be a part): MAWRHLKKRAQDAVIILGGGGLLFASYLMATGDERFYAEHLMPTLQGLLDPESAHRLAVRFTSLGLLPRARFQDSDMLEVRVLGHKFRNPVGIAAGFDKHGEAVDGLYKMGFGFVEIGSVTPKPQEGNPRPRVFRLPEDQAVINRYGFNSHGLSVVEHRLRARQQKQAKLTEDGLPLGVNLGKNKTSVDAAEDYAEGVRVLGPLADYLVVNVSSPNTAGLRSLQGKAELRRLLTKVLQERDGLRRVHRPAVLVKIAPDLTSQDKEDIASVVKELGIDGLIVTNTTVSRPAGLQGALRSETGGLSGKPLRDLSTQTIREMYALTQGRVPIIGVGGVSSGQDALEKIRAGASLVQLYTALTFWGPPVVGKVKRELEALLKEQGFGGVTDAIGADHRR
Summary of the method: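 DCIP reduction followed at 600 nm for 2 min, with 60 μM 2,6-dichloroindophenol, 50 μM decylubiquinone and 100 μM dihydroorotate (reaction started with dihydroorotate). Buffer 50 mM TrisHCl, 150 mM KCl, 0.1% Triton X-100, pH 8.0, 30° C. IC50 from at least six compound concentrations.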

`CCOC(=O)c1ccc(OCCC2CCN(c3ccc(C)nn3)CC2)cc1` [pirodavir] showed an EC50 [1] of 0.3 nM and a CC50 [2] of 4500 nM.

With `[2H]C([2H])([2H])Oc1cccc(-c2cc(F)c(NC(=O)C3=C(C(=O)NOC)CCC3)c(F)c2)c1` [Comparative Example C1, reference compound] the solubility [3] was 220 µM (≈ 89.2 µg/mL), the “human URAT1 uptake transporter stimulation @ 10 μM” value [4] was 173% and the A-B permeability [5] was 0.068 ×10⁻⁶ cm/s. It also gave a B-A permeability [5] of 0.88 ×10⁻⁶ cm/s and a logD [6] of 1.0.

With `[2H]C([2H])([2H])Oc1cccc(-c2cc(F)c(NC(=O)c3ccsc3C(=O)NOC)c(F)c2)c1` [Example 9, N3-(3,5-Difluoro-3′-(methoxy-d3)-[1,1′-biphenyl]-4-yl)-N2-methoxythiophene-2,3-di-carboxamide] the CC50 at 2 days [7] was 45300 nM, the EC50 [1] was 14 nM and the CC50 [8] was greater than 25000 nM. The IC50 [9] was less than 100 nM, the EC50 [10] was less than 1000 nM and the AUC(0-t) ([11]; C57BL/6J, mouse, in vivo, female mice, 0 to 8 h) was 12300 ng·h/mL. For the same compound, the Cmax ([11]; C57BL/6J, mouse, in vivo, female mice, 5 mg/kg oral, 1 mg/kg intravenous cassette) was 3000 ng/mL, the F ([11]; female mice, bioavailability) was 49% and the half-life ([11]; female, C57BL/6J, mouse, in vivo) was 2.6 h. The IC50 [12] was less than 100 nM, the microsomal CLint ([13]; female) was 55.5 µL/min/mg and the microsomal CLint ([13]; male) was 76.5 µL/min/mg. The microsomal CLint ([14]; female) was 63.8 µL/min/mg, the microsomal CLint ([14]; male) was 183 µL/min/mg and the IC50 [15] was less than 100 nM. It also gave an EC50 [16] of 72 nM and an IC50 [17] of less than 100 nM.
